Entries after “also recorded” stand apart in the source; their conditions may differ.
Legend:
[1] = 2AMD study: body weight of NOD mice; format: in vivo, mouse; conditions: 200 pg and 300 pg 2AMD per day in diet, over 200 days (FIG. 3)
Source text: Diet. Breeding pairs were fed LabDiet™ Mouse Diet 5010 ad libitum (PMI Nutrition International, St. Louis, Mo.). Experimental mice were fed LabDiet™ Mouse Diet 5K52 meal form (PMI Nutrition International, St. Louis, Mo.). […] Evaluation of Diabetic Status. […] Whole blood was centrifuged to obtain serum.

[2] = 2AMD study: serum calcium analysis (atomic absorption); format: in vivo, mouse; conditions: 200 pg and 300 pg 2AMD per day in diet; NOD mice; over 30 weeks (FIG. 2)
Source text: Diet. Breeding pairs were fed LabDiet™ Mouse Diet 5010 ad libitum (PMI Nutrition International, St. Louis, Mo.). Experimental mice were fed LabDiet™ Mouse Diet 5K52 meal form (PMI Nutrition International, St. Louis, Mo.). […] Serum Calcium Analysis. Blood was collected from maxillary cheek of each mouse weekly from 8 weeks to 200 days of age.

[3] = system: NOD mice; experiment: 2AMD Type 1 Diabetes Prevention Study: diabetes incidence in NOD mice; format: in vivo, mouse; conditions: female NOD mice
Description: Diet. Breeding pairs were fed LabDiet™ Mouse Diet 5010 ad libitum (PMI Nutrition International, St. Louis, Mo.). Experimental mice were fed LabDiet™ Mouse Diet 5K52 meal form (PMI Nutrition International, St. Louis, Mo.). […] At eight weeks of age, mice were placed on 1 of 4 experimental diets: 1) chow, 2) 5010+50 ng 1,25(OH)2D3, or 3) 5010+200 pg and 4) 5010+300 pg 2AMD. In diets/treatments containing 1,25(OH)2D3 or 2AMD, the hormone was added to 1% Wesson® oil and mixed into the diet.
(§1) Evaluation of Diabetic Status. […] Whole blood was centrifuged to obtain serum.

[4] = system: NOD mice; experiment: 2MD Type 1 Diabetes Prevention Study: diabetes incidence in NOD mice; format: in vivo, mouse; conditions: for Incidence of Type 1 Diabetes: female NOD mice
Source text: as §1

[5] = system: NOD mouse; conditions: of 1,25-(OH)2D3, Zella et al., 2003; cited from earlier work
[6] = background, 19-nor-analogs; cited from earlier work
[7] = system: cellular differentiation; conditions: background, 19-nor-analogs; cited from earlier work
[8] = 2MD study: serum calcium analysis (atomic absorption); conditions: for serum calcium: NOD mice; for Serum Calcium Levels: mean, n = 12, in mg/dL (unit assumed)
Description: Diet. […] Female pups were weaned at three weeks and placed immediately on a purified diet (Suda et al., 1974, J. Nutr. 100: 1049-1052). At eight weeks of age, mice were then provided 1 of 4 experimental diets: diet 11 only or diet 11+50 ng 1,25(OH)2D3, diet 11 plus 400 ng 2 MP or diet 11+500 pg 2MD. All purified diets were supplemented with vegetable oil containing fat soluble vitamins A, E, D and K (Suda et al., 1970, J. Nutr. 100: 1049-1052 [diet 11]). In diets containing 1,25(OH)2D3, 2 MP or 2MD, the compounds were added to 1% Wesson® oil and mixed into the purified diet. Diets were fed in agar form (Hayes et al., 1987, J. Nutr. 117:857-865) at 3.5 g food/mouse/day and were replaced three times per week.
Serum Calcium Analysis. Blood was collected from maxillary cheek of each mouse at 6, 8, 9, 14.3, 15.3 and 28.6 weeks of age. Serum was separated by centrifugation and diluted 1:40 in a 0.1% LaCl2 solution. Calcium concentration was determined by atomic absorption spectrometry (Spectrometer 3110®, Perkin Elmer, Norwalk, Conn.).

[9] = 2MD study: body weight of NOD mice; conditions: for Weights: mean, n = 12, in g (unit assumed)
Description: Diet. […] At eight weeks of age, mice were then provided 1 of 4 experimental diets: diet 11 only or diet 11+50 ng 1,25(OH)2D3, diet 11 plus 400 ng 2 MP or diet 11+500 pg 2MD. All purified diets were supplemented with vegetable oil containing fat soluble vitamins A, E, D and K (Suda et al., 1970, J. Nutr. 100: 1049-1052 [diet 11]). In diets containing 1,25(OH)2D3, 2 MP or 2MD, the compounds were added to 1% Wesson® oil and mixed into the purified diet. Diets were fed in agar form (Hayes et al., 1987, J. Nutr. 117:857-865) at 3.5 g food/mouse/day and were replaced three times per week.
Evaluation of Diabetic Status. All experimental mice were weighed weekly and urinalysis was performed weekly starting at 10 weeks of age—Diastix® (Bayer, Elkhart, Ind.) were used to determine glucose levels. If a Diastix® reading was above 1000 mg/dl, the mice were bled from maxillary cheek following a four-hour fast. Whole blood was centrifuged to obtain serum. Concentration of glucose in serum was measured using a enzymatic-colorimetric assay (Glucose Liquicolor®, Stanbio Laboratory, Boerne, Tex.) followed by spectrophotometric analysis. Animals that had two fasting glucose analysis above 300 mg/dl were diagnosed as diabetic and sacrificed via CO2 asphyxiation.

[10] = Group 8, 0.5 ng 2MD, age 6 weeks
[11] = Group 8, 0.5 ng 2MD, age 8 weeks
[12] = Group 8, 0.5 ng 2MD, age 9 weeks
[13] = Group 8, 0.5 ng 2MD, age 14.3 weeks
[14] = Group 8, 0.5 ng 2MD, age 15.3 weeks
[15] = Group 8, 0.5 ng 2MD, age 28.6 weeks
[16] = Group 10, 400 ng 2MP, age 6 weeks
[17] = Group 10, 400 ng 2MP, age 8 weeks
[18] = Group 10, 400 ng 2MP, age 9 weeks
[19] = Group 10, 400 ng 2MP, age 14.3 weeks
[20] = Group 10, 400 ng 2MP, age 15.3 weeks
[21] = Group 10, 400 ng 2MP, age 28.6 weeks

2α-methyl-19-nor-20(S)-1α,25-dihydroxyvitamin D3 [2AMD]
body weight [1]: no statistically significant change in body weight; also recorded: not altered
serum calcium / hypercalcemia [2]: no statistically significant increase in serum calcium; also recorded: without hypercalcemia
diabetes incidence at 200 days (FIG. 1) ([3]; 200 pg and 300 pg 2AMD daily in diet, versus no treatment): statistically significant reduced incidence of diabetes
Type 1 diabetes disease incidence ([3]; 200 pg and 300 pg 2AMD per day in 5010 diet, from 8 weeks to 200 days of age): 8%

C=C1/C(=C\C=C2/CCC[C@]3(C)[C@@H]([C@H](C)CCCC(C)(C)O)CC[C@@H]23)C[C@@H](O)C[C@@H]1O [1,25(OH)2D3, 1α,25-dihydroxy-vitamin D3]
protection against T1DM ([3]; 50 ng 1,25(OH)2D3 per day in 5010 diet): completely protected
Incidence of Type 1 Diabetes ([4]; 50 ng per day in diet 11, 200 days, n = 24): 4.2%
prevention of diabetes ([4]; 50 ng/day 1,25(OH)2D3 in diet 11, NOD mice): prevented diabetes
prevention of Type 1 diabetes [5]: completely prevent Type 1 diabetes

C[C@H](CCCC(C)(C)O)[C@H]1CC[C@H]2/C(=C/C=C3C[C@@H](O)C[C@H](O)C3)CCC[C@]12C [1α,25-dihydroxy-19-nor-vitamin D3]
calcium mobilizing activity [6]: very low calcium mobilizing activity
potency for inducing cellular differentiation [7]: high potency

C=C1[C@H](O)CC(=C/C=C2\CCC[C@@]3(C)C2CCC3[C@@H](C)CCCC(C)(C)O)C[C@H]1O (stereo partly drawn) [2MD, 2-methylene-19-nor-20(S)-1,25-dihydroxyvitamin D3]
Incidence of Type 1 Diabetes ([4]; 0.5 ng per day in diet 11, 200 days, n = 12): 0.0%
prevention of diabetes / diabetes incidence (FIG. 4) ([4]; 0.5 ng/day 2MD in diet 11, NOD mice, 200 days): statistically significant reduced incidence of diabetes; also recorded: prevented diabetes
serum calcium ([8]; 0.5 ng 2MD per day in diet 11, over 30 weeks (FIG. 6)): no statistically significant increase in serum calcium; also recorded: moderate elevation of calcium
Serum Calcium Levels [8, 10]: 11.42
Serum Calcium Levels [8, 11]: 11.45
Serum Calcium Levels [8, 12]: 11.55
Serum Calcium Levels [8, 13]: 11.52
Serum Calcium Levels [8, 14]: 11.33
Serum Calcium Levels [8, 15]: 11.37
body weight (FIG. 5) ([9]; 0.5 ng 2MD per day in diet 11, NOD mice, over 200 days): no statistically significant change in body weight
Weights ([9]; Group 8, 0.5 ng 2MD, age 3 weeks): 13.33
Weights [9, 10]: 21.87
Weights [9, 11]: 23.78
Weights [9, 12]: 24.94
Weights [9, 13]: 27.85
Weights [9, 14]: 27.82
Weights [9, 15]: 29.51

C=C1C(O)CC(=CC=C2CCCC3(C)C2CCC3C(C)C)CC1O (stereo not drawn) [2MP, 1α-hydroxy-2-methylene-19-nor-homopregnacalciferol, reference compound]
protection against diabetes ([4]; 400 ng 2 MP per day in diet 11, NOD mice): no protection against diabetes
Incidence of Type 1 Diabetes ([4]; 400 ng per day in diet 11, 200 days, n = 12): 33.0%
serum calcium ([8]; 400 ng 2 MP per day in diet 11): moderate elevation of calcium
Serum Calcium Levels [8, 16]: 11.57
Serum Calcium Levels [8, 17]: 11.57
Serum Calcium Levels [8, 18]: 11.55
Serum Calcium Levels [8, 19]: 11.62
Serum Calcium Levels [8, 20]: 11.77
Serum Calcium Levels [8, 21]: 11.66
Weights ([9]; Group 10, 400 ng 2MP, age 3 weeks): 13.60
Weights [9, 16]: 22.03
Weights [9, 17]: 23.74
Weights [9, 18]: 24.63
Weights [9, 19]: 26.30
Weights [9, 20]: 26.81
Weights [9, 21]: 27.64

Reference: US20110124609A1, “Method of Preventing Type I Diabetes” (Wisconsin Alumni Research Foundation, priority 2009, published 2011)
